Test results reported in the supplement of paper PMC8837787.

The compounds below were run on Saccharomyces cerevisiae ABC16-Green Monster. Details: 18 h; 30 °C; YPD.
Protocol: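 Growth inhibition of the drug-sensitive S. cerevisiae ABC16-Green Monster strain (16 ABC transporters deleted) in YPD at 30 °C for 18 h. […] dilution series […] in biological replicates; IC50 from OD600 (18 h minus 0 h) fitted by variable-slope nonlinear regression in GraphPad Prism. Library compounds were first screened at 150 µM, and only those with at least 70% inhibition went to dose-response; the rest are marked inactive.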

`COC1C=COC2(C)Oc3c(C)c(O)c4c(c3C2=O)C(=O)C(=CNN2CCN(C)CC2)C(=C4O)NC(=O)C(C)=CC=CC(C)C(O)C(C)C(O)C(C)C(OC(C)=O)C1C` (stereo unspecified) [Rifampicin] and `CCC(C)C1OC2(CCC1C)CC1CC(CC=C(C)C(OC3CC(OC)C(OC4CC(OC)C(O)C(C)O4)C(C)O3)C(C)C=CC=C3COC4C(O)C(C)=CC(C(=O)O1)C34O)O2` (stereo unspecified) [Ivermectin] cannot be ordered by IC50 growth inhibition: greater than 75 µM for the first, greater than 75 µM for the second.

Compared with `Brc1cncc(-c2cc(NCCCn3ccnc3)nc(-c3ccccc3)n2)c1`, `O=C(NCCc1ccccc1)c1cc(-c2cccnc2)cnc1NCC1CC1` is 1.5-fold lower in IC50 growth inhibition: 23.9 µM for the first, 15.9 µM for the second.

Going from `Cc1cc(C)nc(-n2nc(C)cc2Nc2ccccc2)n1` to `Cc1cc(C)n(-c2ccc3c(Cl)cc(Cl)c(O)c3n2)n1`, the IC50 growth inhibition rises from 42.1 µM to 71.3 µM (1.7-fold).

`Cc1[nH]c2ccccc2c1C(c1cccs1)N1CCN(C)CC1` (stereo unspecified) and `CCCc1cc(N2CCN(C)CC2)n2ncc(-c3ccccc3)c2n1` are within 1.5-fold of each other in IC50 growth inhibition: 35.9 µM for the first, 47 µM for the second.

Going from `O=C1CCC(N2C(=O)c3ccccc3C2=O)C(=O)N1` (stereo unspecified) [Thalidomide] to `CC(=O)N(C1=C(N2CCOCC2)C(=O)c2ccccc2C1=O)c1cccc(Cl)c1` [GNF-Pf-2288], the IC50 growth inhibition falls from greater than 75 µM to 41.7 µM.

First: Cc1cc(NS(=O)(=O)c2ccc(Nc3nc(-c4ccc(Cl)c(Cl)c4)cs3)cc2)no1 [CBR410]
Second: CC(Oc1ccc(Cl)cc1Cl)c1nc(-c2ccc(NC(=O)c3ccco3)cc2)no1 (stereo unspecified) [GNF-Pf-3333]
The IC50 growth inhibition of the first is 1.7-fold higher: 4.87 µM for the first, 2.8 µM for the second.

`COc1ccc(-c2onc(C(F)(F)F)c2-c2ccc(Cl)cc2)c(O)c1` and `O=C(Nc1nnc(-c2ccc(Cl)cc2)o1)c1cccc(C(F)(F)F)c1` are within 1.5-fold of each other in IC50 growth inhibition: 48.6 µM for the first, 71.2 µM for the second.

Going from `O=C(C(Cc1c[nH]c2ccccc12)NS(=O)(=O)c1ccc(Cl)cc1)N1CCCCC1` (stereo unspecified) to `Cc1ccc2nc3ccccc3c(N3CCN(C(=O)c4ccccc4)CC3)c2c1`, the IC50 growth inhibition falls from 42.4 µM to 6.15 µM (6.9-fold).

`NC(=O)NO` [Hydroxyurea] and `CN(C)C(=N)N=C(N)N` [Metformin] cannot be ordered by IC50 growth inhibition: greater than 75 µM for the first, greater than 75 µM for the second.

Going from `CC1CCC2C(C)C(O)OC3OC4(C)CCC1C32OO4` (stereo unspecified) [Dihydroartemisinin] to `CC1CCCC=CC2CC(O)CC2C(O)C=CC(=O)O1` (stereo unspecified) [Brefeldin A], the IC50 growth inhibition falls from greater than 75 µM to 31.9 µM.

Going from `COC=C(C(=O)OC)c1ccccc1Oc1cc(Oc2ccccc2C#N)ncn1` [Azoxystrobin] to `CN(C)c1cc(NC(=O)Nc2ccccc2)c2ccccc2n1`, the IC50 growth inhibition falls from greater than 75 µM to 39.4 µM.

Going from `CCC(=C(c1ccc(O)cc1)c1ccc(OCCNC)cc1)c1ccccc1` [Endoxifen] to `CCC(=C(c1ccccc1)c1ccc(OCCN(C)C)cc1)c1ccccc1` [Tamoxifen], the IC50 growth inhibition falls from 8.3 µM to 3.13 µM (2.7-fold).

Going from `Cc1ccc(Oc2ccc(NC(=O)CNc3ccccc3N3CCCC3=O)cc2)cc1` to `CN1CCN(c2ccccc2NC(=O)c2cccc(Oc3ccccc3)c2)CC1`, the IC50 growth inhibition rises from 31.5 µM to 98.9 µM (3.1-fold).

Compared with `CC(C)(C)c1ccc(C(=N)NOC(=O)c2sccc2Cl)cc1`, `COc1ccccc1NC(=O)c1ccc(NC(=O)Cn2ncc(Cl)c(Cl)c2=O)cc1` is 35-fold lower in IC50 growth inhibition: 8.34 µM for the first, 0.238 µM for the second.

Compared with `CC(C(=O)O)c1ccc2c(c1)[nH]c1ccc(Cl)cc12` (stereo unspecified) [Carprofen], `OC(CNCC1CCCO1)Cn1c2ccc(Cl)cc2c2cc(Cl)ccc21` (stereo unspecified) is lower in IC50 growth inhibition: greater than 75 µM for the first, 4.91 µM for the second.

Compared with `O=C(Nc1nc(-c2ccccn2)cs1)c1ccccc1Br`, `Cc1nc(-c2ccccn2)nc(N(C)CCc2ccccc2)c1Cl` is 5.2-fold higher in IC50 growth inhibition: 8.35 µM for the first, 43.3 µM for the second.

Compared with `CCCCCC(=O)N[C@H](C(=O)N[C@@H](CCS(C)(=O)=O)C(=O)N[C@@H](CC(C)C)C(=O)[C@@]1(C)CO1)C(C)C` [Carmaphycin B], `CC(C)CC(NC(=O)C(Cc1ccccc1)NC(=O)c1cnccn1)B(O)O` (stereo unspecified) [Bortezomib] is 1.9-fold higher in IC50 growth inhibition: 24.8 µM for the first, 46.2 µM for the second.

Going from `Clc1cccc(Nc2ncc(-c3ccc4c(c3)OCCCO4)s2)c1` to `COc1ccc(-c2cnc3ccc(N4CCCC4)nn23)cc1OC`, the IC50 growth inhibition rises from 15.4 µM to 68.5 µM (4.4-fold).

First: COc1cc(OC)cc(C(=O)NCC2Cc3cc(Cl)cc(-c4ccncc4)c3O2)c1 (stereo unspecified)
Second: COc1ccc2nc3cc(Cl)ccc3c(N(C)CCc3ccc(OC)c(OC)c3)c2c1
The IC50 growth inhibition of the first is 1.9-fold lower: 14.4 µM for the first, 27.2 µM for the second.

Going from `OC1=C2C(=Nc3ccccc3SC2c2cccs2)c2ccccc21` (stereo unspecified) [GNF-Pf-5669] to `Cc1ccc(C2Sc3ccccc3N=C3C2=C(O)c2ccccc23)cc1` (stereo unspecified) [GNF-Pf-5468], the IC50 growth inhibition falls from greater than 150 µM to 4.95 µM.

Going from `Cc1ccc(Cc2c(C)nn(-c3nc4ccccc4[nH]3)c2O)cc1` [CBR868] to `COc1ccc(Nc2nc(Nc3ccc(C)cc3)nc(Sc3nc4ccccc4[nH]3)n2)cc1` [CBR499], the IC50 growth inhibition falls from 5.39 µM to 2.31 µM (2.3-fold).

First: COc1ccc2sc(N(Cc3cccnc3)C(=O)c3ccc(C#N)cc3)nc2c1
Second: CC(C)(C)C(O)C(Oc1ccc(-c2ccccc2)cc1)n1cncn1 (stereo unspecified)
The IC50 growth inhibition of the first is 18-fold lower: 3.85 µM for the first, 70 µM for the second.

First: Cc1cc(C(=O)NCCc2cccc(F)c2)c(C)n1C(C)C
Second: Cc1cc(F)c(C(=O)Nc2cccc(-c3nncn3C(C)C)n2)cc1-n1cnc(C2CC2)c1 [GS-4997]
The IC50 growth inhibition of the first is lower: 20.7 µM for the first, greater than 75 µM for the second.

`CCN(CC)CCCC(C)Nc1ccnc2cc(Cl)ccc12` (stereo unspecified) [Chloroquine] and `COc1cc(NC(C)CCCN)c2ncccc2c1` (stereo unspecified) [Primaquine] cannot be ordered by IC50 growth inhibition: greater than 75 µM for the first, 107 µM for the second.

Going from `CC(=O)NCC1CN(c2ccc(-c3ccc(CNCc4cn[nH]n4)cc3)c(F)c2)C(=O)O1` (stereo unspecified) [Radezolid] to `Cc1nn2c(=O)cc(-c3ccccc3)[nH]c2c1-c1ccc(F)cc1`, the IC50 growth inhibition falls from greater than 75 µM to 39 µM.

`CCCCCN(C)CCC(O)(P(=O)([O-])O)P(=O)(O)O.[Na+]` [Ibandronate] and `CCCC(CCC)C(=O)O` [Valproic acid] cannot be ordered by IC50 growth inhibition: greater than 75 µM for the first, greater than 75 µM for the second.

Going from `CC(CN1c2ccccc2Sc2ccccc21)N(C)C` (stereo unspecified) [Promethazine] to `OCCN1CCN(CCCN2c3ccccc3Sc3ccc(C(F)(F)F)cc32)CC1` [Fluphenazine], the IC50 growth inhibition falls from 98.9 µM to 30.1 µM (3.3-fold).

Compared with `CC1(COc2ccc(N3CCC(Oc4ccc(OC(F)(F)F)cc4)CC3)cc2)Cn2cc([N+](=O)[O-])nc2O1` (stereo unspecified) [Delamanid], `CCC(C(C)O)n1ncn(-c2ccc(N3CCN(c4ccc(OCC5COC(Cn6cncn6)(c6ccc(F)cc6F)C5)cc4)CC3)cc2)c1=O` (stereo unspecified) [Posaconazole] is lower in IC50 growth inhibition: greater than 75 µM for the first, 0.71 µM for the second.

`Cc1cc(Nc2nc(N[C@@H](C)c3ncc(F)cn3)ncc2Cl)n[nH]1` [AZD-1480] and `Cc1nn(C)cc1C(C)Nc1nncc(-c2ccc(C(F)(F)F)cc2)n1` (stereo unspecified) are within 1.5-fold of each other in IC50 growth inhibition: 58.6 µM for the first, 44.9 µM for the second.

Compared with `COC(=O)C1=C(C)NC(C)=C(C(=O)OCC(C)C)C1c1ccccc1[N+](=O)[O-]` (stereo unspecified) [Nisoldipine], `NC(=O)[C@@H](CC1CC1)[C@@H](CCC(F)(F)F)C(=O)N[C@H]1N=C(c2ccccc2)c2cccc(F)c2NC1=O` is 20-fold lower in IC50 growth inhibition: 41 µM for the first, 2.06 µM for the second.

`CCN1C(=Cc2cc(C)[n+](CCCN3CCOCC3)c(C)c2)Sc2ccccc21` and `CN1C=C/C(=C/c2ccc3ccccc3[n+]2C)c2ccccc21` are within 1.5-fold of each other in IC50 growth inhibition: 55.3 µM for the first, 51.4 µM for the second.

First: COc1ccc(CN2CCN(C(c3ccc(F)cc3)c3ccc(F)cc3)CC2)c(OC)c1OC [Lomerizine]
Second: COc1ccc(-c2nnc3ccc(-c4cccc(C(C)C)c4)cn23)cc1OC
The IC50 growth inhibition of the first is 3.7-fold lower: 14.2 µM for the first, 52.3 µM for the second.

`CC(C=CC(=O)NO)=CC(C)C(=O)c1ccc(N(C)C)cc1` (stereo unspecified) [Trichostatin A] and `Cc1c(C)n(CCCN(C)C)c2ncn3nc(-c4ccc(N(C)C)cc4)nc3c12` are within 1.5-fold of each other in IC50 growth inhibition: 50.6 µM for the first, 42.3 µM for the second.

Going from `CCC(=O)NC(c1ccccc1Cl)c1cc(Cl)c2cccnc2c1O` (stereo unspecified) [GNF-Pf-5038] to `Cc1cc(Cl)ccc1OCc1nnc(-c2ccccn2)[nH]1`, the IC50 growth inhibition rises from 6.51 µM to 20.7 µM (3.2-fold).

Compared with `Brc1ccc(Nc2nc3ccccc3nc2Nc2ccc(Br)cc2)cc1`, `Cc1cc(NCCc2ccccc2)nc(NC(=N)Nc2ccc(Cl)cc2)n1` is 23-fold higher in IC50 growth inhibition: 2.31 µM for the first, 53.8 µM for the second.

Going from `CN[C@H]1C[C@@H](N)[C@H](O)[C@@H](O[C@@H]2O[C@H](CO)[C@H](O)[C@@H]3O[C@@]4(O[C@H]23)O[C@H]([C@H](N)CO)[C@H](O)[C@H](O)[C@H]4O)[C@@H]1O` [Hygromycin B] to `Nc1ccn(C2OC(CO)C(O)C2(F)F)c(=O)n1` (stereo unspecified) [Gemcitabine], the IC50 growth inhibition rises from 13.8 µM to greater than 75 µM.

Compared with `CCCCN(CCCC)CC(O)c1cc(Cl)cc2c1-c1ccc(Cl)cc1C2=Cc1ccc(Cl)cc1` (stereo unspecified) [Lumefantrine], `O=C1C2=C(Nc3ccccc3SC2c2ccccc2F)c2ccccc21` (stereo unspecified) is lower in IC50 growth inhibition: greater than 75 µM for the first, 9.02 µM for the second.

Going from `C[C@]1(O)C[C@@H](c2nc(-c3ccc4ccc(-c5ccccc5)nc4c3)c3c(N)nccn32)C1` [Linsitinib] to `Cn1cc(CN2CCc3c(c(C(=O)NCc4nccs4)nn3Cc3ccccc3)C2)c2ccccc21`, the IC50 growth inhibition rises from 16 µM to 109 µM (6.8-fold).

`FC(F)c1nc2ccccc2n1-c1nc(N2CCOCC2)nc(N2CCOCC2)n1` [ZSTK-474] and `Cc1nn(C(=O)Nc2cccc(C(F)(F)F)c2)c(C)c1Sc1ncccn1` are within 1.5-fold of each other in IC50 growth inhibition: 52 µM for the first, 45 µM for the second.

`N.N.O=C([O-])C1(C(=O)[O-])CCC1.[Pt+2]` [Carboplatin] and `CCC1(O)C(=O)OCc2c1cc1n(c2=O)Cc2cc3c(CN(C)C)c(O)ccc3nc2-1` (stereo unspecified) [Topotecan] cannot be ordered by IC50 growth inhibition: greater than 75 µM for the first, greater than 75 µM for the second.

Compound `OC(Cn1cncn1)(Cn1cncn1)c1ccc(F)cc1F` [Fluconazole] has an IC50 growth inhibition of 3.14 µM.
